The source of these data is US6858645B2, “Tartrate salts of (R) -3-N,N- dicyclobutylamino-8-fluoro-3,4-dihydro-2H-1- benzopyran-5-carboxamide” (AstraZeneca AB, priority 1997, dated 2005).

For data set [1] the following is noted: thermogravimetric measurement.
Data set [2] is described as follows: Moisture sorption analysis (absorption and desorption), VTI microbalance, as a measure of physical stability. It counts as physicochemical. The conditions noted are these: 25° C. As to the method: Determination of Stability […] The moisture sorption analysis, absorption and desorption, respective was performed using a VTI microbalance, Model […] (VTI Corporation, USA) linked to an IBM PC. The relative humidity (RH) within the balance was monitored using a dew point analyser. […] The desorption profile was also obtained.

The conditions of data set [3]: water firmly bound in crystal lattice.
For data set [4] the following is noted: background statement on the salt disclosed in WO 95/11891; cited from earlier work.

In the case of `NC(=O)c1ccc(F)c2c1C[C@@H](N(C1CCC1)C1CCC1)CO2.O.O=C(O)C(O)C(O)C(=O)O` [Example 2, (R)-3-N,N-dicyclobutylamino-8-fluoro-3,4-dihydro-2H-1-benzopyran-5-carboxamide Hydrogen (2R,3R)-Tartrate Monohydrate], in data set [1], the “initial weight loss (thermogravimetric)” value is listed as 4.104 % w/w. Besides, the “RH at which significant uptake of moisture was recorded” value in data set [2] (RH steps of 5%) is listed as ≥ 60%. The moisture absorbed in data set [2] (RH of 90%) was 2.5 % (w/w). Further, in data set [2] (desorption after exposure up to 90% RH), the desorption profile result is given as “the moisture uptake is reversible”. Further, in data set [3], the “heating temperature up to which crystal water is not released” value was “up to 70 °C”.

Take `Cl.NC(=O)c1ccc(F)c2c1C[C@@H](N(C1CCC1)C1CCC1)CO2` [HCl salt, (R)-3-N,N-dicyclobutylamino-8-fluoro-3,4-dihydro-2H-1-benzopyran-5-carboxamide, reference compound]: the “hygroscopicity / physical stability during manufacturing and storage” value in data set [4] was “hygroscopic and thus physically unstable”. Also, in data set [2] (85% relative humidity), the “behaviour at high relative humidity” value is “exhibits deliquescence” and the moisture taken up entry is reported as “approximately 20 % w/w”.
